13 molecules from US12030878B2 (BRISTOL-MYERS SQUIBB COMPANY, priority 2017, dated 2024) can be followed below.

Common to all, as to type: cell-based
In one assay the target is T1, human TLR7 (Homo sapiens, UniProt Q9NYK1).
T1 construct: host or cells: HEK-Blue cells
T1 sequence (Q9NYK1 27-1049): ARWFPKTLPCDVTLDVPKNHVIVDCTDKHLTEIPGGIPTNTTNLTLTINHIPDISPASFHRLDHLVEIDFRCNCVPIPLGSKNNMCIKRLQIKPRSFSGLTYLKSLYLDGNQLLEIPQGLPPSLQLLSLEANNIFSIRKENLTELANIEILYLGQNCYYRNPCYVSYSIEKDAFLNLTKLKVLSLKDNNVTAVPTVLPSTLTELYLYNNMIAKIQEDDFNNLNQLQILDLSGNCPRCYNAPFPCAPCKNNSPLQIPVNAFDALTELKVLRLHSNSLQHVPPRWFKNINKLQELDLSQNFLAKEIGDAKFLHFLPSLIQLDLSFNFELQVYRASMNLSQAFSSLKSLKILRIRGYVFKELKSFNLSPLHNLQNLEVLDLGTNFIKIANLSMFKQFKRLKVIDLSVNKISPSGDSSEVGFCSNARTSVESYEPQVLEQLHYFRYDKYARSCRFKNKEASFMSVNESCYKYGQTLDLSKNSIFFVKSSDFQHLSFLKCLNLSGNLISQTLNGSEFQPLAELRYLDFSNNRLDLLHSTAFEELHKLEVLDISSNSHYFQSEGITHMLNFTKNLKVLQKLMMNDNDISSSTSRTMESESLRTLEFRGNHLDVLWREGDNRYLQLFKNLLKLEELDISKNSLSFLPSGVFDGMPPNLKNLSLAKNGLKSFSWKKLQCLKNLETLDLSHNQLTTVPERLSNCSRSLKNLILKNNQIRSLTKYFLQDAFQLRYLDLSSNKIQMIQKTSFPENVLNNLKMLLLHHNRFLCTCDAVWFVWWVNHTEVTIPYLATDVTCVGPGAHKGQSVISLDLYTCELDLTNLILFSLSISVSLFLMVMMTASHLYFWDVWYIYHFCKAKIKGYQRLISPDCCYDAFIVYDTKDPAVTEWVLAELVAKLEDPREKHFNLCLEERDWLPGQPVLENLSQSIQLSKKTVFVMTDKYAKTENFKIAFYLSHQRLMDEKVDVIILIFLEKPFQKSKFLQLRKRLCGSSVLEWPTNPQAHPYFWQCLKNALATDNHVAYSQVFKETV
The assay can be described thus: TLR7 inhibition reporter assay (HEK-Blue SEAP). Conditions: HEK-Blue cells overexpressing human TLR7, stimulated with gardiquimod 7.5 μM, 22 hour incubation. The procedure: (§1) TLR7/8/9 Inhibition Reporter Assays
(§2) HEK-Blue™-cells (Invivogen) overexpressing human TLR7, TLR8 or TLR9 receptors were used for screening inhibitors of these receptors using an inducible SEAP (secreted embryonic alkaline phosphatase) reporter gene under the control of the IFN-β minimal promoter fused to five NF-κB and AP-1-binding sites. Briefly, cells are seeded into Greiner 384 well plates (15000 cells per well for TLR7, 20.000 for TLR8 and 25,000 for TLR9) and then treated with test compounds in DMSO to yield a final dose response concentration range of 0.05 nM-50 μM. After a 30 minute compound pre-treatment at room temperature, the cells are then stimulated with a TLR7 ligand (gardiquimod at a final concentration of 7.5 μM), TLR8 ligand (R848 at a final concentration of 15.9 μM) or TLR9 ligand (ODN2006 at a final concentration of 5 nM) to activate NF-κB and AP-1 which induce the production of SEAP. After a 22 hour incubation at 37° C., 5% CO2, SEAP levels are determined with the addition of HEK-Blue™ Detection reagent (Invivogen), a cell culture medium that allows for detection of SEAP, according to manufacturer's specifications. The percent inhibition is determined as the % reduction in the HEK-Blue signal present in wells treated with agonist plus DMSO alone compared to wells treated with a known inhibitor.
A general note: Reporter assays use an easily measured gene product as a stand-in for the process of interest.

Another assay concerns the target T2, human TLR8 (Homo sapiens, UniProt Q9NR97).
T2 construct: host or cells: HEK-Blue cells
T2 sequence (Q9NR97 27-1041): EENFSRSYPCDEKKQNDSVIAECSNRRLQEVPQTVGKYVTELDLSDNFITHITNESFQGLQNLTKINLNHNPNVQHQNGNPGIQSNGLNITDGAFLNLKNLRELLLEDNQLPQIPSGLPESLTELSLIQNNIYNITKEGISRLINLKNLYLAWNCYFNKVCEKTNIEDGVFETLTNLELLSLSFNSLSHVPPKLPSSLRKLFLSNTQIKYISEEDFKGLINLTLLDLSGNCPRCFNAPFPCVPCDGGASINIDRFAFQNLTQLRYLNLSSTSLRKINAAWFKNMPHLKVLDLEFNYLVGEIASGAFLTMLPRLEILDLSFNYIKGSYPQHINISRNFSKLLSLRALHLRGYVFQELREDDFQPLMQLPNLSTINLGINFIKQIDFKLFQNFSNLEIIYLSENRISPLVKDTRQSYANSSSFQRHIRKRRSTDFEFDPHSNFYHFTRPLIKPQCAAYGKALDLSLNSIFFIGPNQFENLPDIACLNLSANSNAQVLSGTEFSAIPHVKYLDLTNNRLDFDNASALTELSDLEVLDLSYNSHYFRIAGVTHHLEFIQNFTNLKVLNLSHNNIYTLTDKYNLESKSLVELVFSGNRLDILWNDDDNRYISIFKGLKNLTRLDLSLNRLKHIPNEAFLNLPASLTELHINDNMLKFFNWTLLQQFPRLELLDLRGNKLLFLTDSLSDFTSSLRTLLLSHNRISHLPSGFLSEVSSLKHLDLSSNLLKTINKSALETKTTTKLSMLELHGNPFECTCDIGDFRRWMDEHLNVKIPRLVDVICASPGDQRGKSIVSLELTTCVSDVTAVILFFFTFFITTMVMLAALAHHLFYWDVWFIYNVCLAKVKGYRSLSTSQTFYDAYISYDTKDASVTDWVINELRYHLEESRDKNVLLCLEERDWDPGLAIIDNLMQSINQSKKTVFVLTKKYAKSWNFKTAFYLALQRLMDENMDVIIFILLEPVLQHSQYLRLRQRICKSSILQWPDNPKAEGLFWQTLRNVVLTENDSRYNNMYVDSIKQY
The assay is described as follows: TLR8 inhibition reporter assay (HEK-Blue SEAP). The note with it: HEK-Blue cells overexpressing human TLR8, stimulated with R848 15.9 μM, 22 hour incubation. The procedure:
as §1, §2

Another assay concerns the target T3, human TLR9 (Homo sapiens, UniProt Q9NR96).
T3 construct: host or cells: HEK-Blue cells
T3 sequence (Q9NR96 26-1032): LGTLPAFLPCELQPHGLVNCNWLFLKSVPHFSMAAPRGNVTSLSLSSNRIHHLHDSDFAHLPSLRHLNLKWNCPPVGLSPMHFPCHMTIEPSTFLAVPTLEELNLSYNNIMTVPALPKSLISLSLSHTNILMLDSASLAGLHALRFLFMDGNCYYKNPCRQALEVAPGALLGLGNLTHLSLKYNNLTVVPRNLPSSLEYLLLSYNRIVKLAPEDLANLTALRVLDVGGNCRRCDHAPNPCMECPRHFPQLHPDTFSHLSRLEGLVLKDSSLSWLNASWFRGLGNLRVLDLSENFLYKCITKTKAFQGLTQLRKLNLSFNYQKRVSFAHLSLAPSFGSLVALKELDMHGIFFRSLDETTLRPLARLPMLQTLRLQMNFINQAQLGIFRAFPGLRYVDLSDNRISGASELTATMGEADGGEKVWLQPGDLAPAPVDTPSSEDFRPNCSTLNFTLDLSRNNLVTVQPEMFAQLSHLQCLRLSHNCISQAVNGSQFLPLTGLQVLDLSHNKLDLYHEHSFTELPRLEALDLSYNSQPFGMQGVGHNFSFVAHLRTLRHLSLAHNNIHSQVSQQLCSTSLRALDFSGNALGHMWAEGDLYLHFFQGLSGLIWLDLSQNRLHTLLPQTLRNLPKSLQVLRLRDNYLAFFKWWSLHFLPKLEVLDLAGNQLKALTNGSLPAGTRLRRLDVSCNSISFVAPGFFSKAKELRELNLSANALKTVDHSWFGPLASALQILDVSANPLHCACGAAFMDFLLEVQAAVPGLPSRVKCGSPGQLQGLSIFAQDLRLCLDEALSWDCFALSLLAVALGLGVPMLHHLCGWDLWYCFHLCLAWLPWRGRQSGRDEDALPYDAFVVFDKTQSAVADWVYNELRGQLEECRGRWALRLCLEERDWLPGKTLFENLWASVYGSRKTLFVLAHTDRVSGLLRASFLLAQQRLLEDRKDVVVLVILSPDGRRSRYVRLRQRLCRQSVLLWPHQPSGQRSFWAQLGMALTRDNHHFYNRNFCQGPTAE
The assay can be described thus: TLR9 inhibition reporter assay (HEK-Blue SEAP). The note with it: HEK-Blue cells overexpressing human TLR9, stimulated with ODN2006 5 nM, 22 hour incubation. As to the method:
as §1, §2

As a reminder, the IC50 is the concentration that inhibits the measured activity by half. Low values mean greater potency in that assay, high ones weaker potency in that assay. In the case of `Cc1cc(-c2[nH]c3ccc(OC4CCNCC4)cc3c2C(C)C)cc(C)n1` [Example 1, 2-(2,6-dimethylpyridin-4-yl)-3-isopropyl-5-(piperidin-4-yloxy)-1H-indole], the IC50 stood at 2.9 nM at human TLR7, 2.1 nM against human TLR8 and 241 nM on human TLR9.
In the same order, the values of `Cc1cc(-c2[nH]c3ccc(OCCN4CCCC4)cc3c2C(C)C)cn2ncnc12` [Example 2, 6-(3-isopropyl-5-(2-(pyrrolidin-1-yl)ethoxy)-1H-indol-2-yl)-8-methyl-[1,2,4]triazolo[1,5-a]pyridine] are 1 nM, 1.6 nM and 2140 nM.
For the molecule `Cc1cc(-c2[nH]c3ccc(OCCN4CCC(F)(F)CC4)cc3c2C(C)C)cn2ncnc12` [Example 3, 6-(5-(2-(4,4-difluoropiperidin-1-yl)ethoxy)-3-isopropyl-1H-indol-2-yl)-8-methyl-[1,2,4]triazolo[1,5-a]pyridine], the half-maximal inhibitory concentration (IC50) amounted to 26.4 nM on human TLR7, 11 nM against human TLR8 and 18700 nM at human TLR9.
In the same order, the values of `Cc1cc(-c2[nH]c3ccc(OCCN4CCCC(F)C4)cc3c2C(C)C)cn2ncnc12` (centres unmarked) [Example 4, 6-(5-(2-(3-fluoropiperidin-1-yl)ethoxy)-3-isopropyl-1H-indol-2-yl)-8-methyl-[1,2,4]triazolo[1,5-a]pyridine] are greater than 3130 nM, 15.4 nM and greater than 50000 nM.
For `Cc1cc(-c2[nH]c3ccc(OCCN4CCOCC4)cc3c2C(C)C)cn2ncnc12` [Example 5, 4-(2-((3-isopropyl-2-(8-methyl-[1,2,4]triazolo[1,5-a]pyridin-6-yl)-1H-indol-5-yl)oxy)ethyl)morpholine], in that order: 8.1 nM, 3.3 nM and 37300 nM.
For `Cc1cc(-c2[nH]c3ccc(OCC4CCNCC4)cc3c2C(C)C)cc(C)n1` [Example 6, 2-(2,6-dimethylpyridin-4-yl)-3-isopropyl-5-(piperidin-4-ylmethoxy)-1H-indole], in that order: 1.8 nM, 4.4 nM and 406 nM.
With `Cc1cc(-c2[nH]c3ccc(OCC4CCNCC4)cc3c2C(C)C)cn(C)c1=O` [Example 7, 5-(3-isopropyl-5-(piperidin-4-ylmethoxy)-1H-indol-2-yl)-1,3-dimethylpyridin-2(1H)-one], the IC50 was 2.1 nM against human TLR7, 2.6 nM on human TLR8 and 797 nM against human TLR9.
Consider `Cc1cc(-c2[nH]c3ccc(O[C@H]4CCCNC4)cc3c2C(C)C)cn(C)c1=O` [Example 8, (S)-5-(3-isopropyl-5-(piperidin-3-yloxy)-1H-indol-2-yl)-1,3-dimethylpyridin-2(1H)-one], for which the IC50 against human TLR7 worked out at 6.6 nM; on human TLR8 it was 13.9 nM; at human TLR9, 3520 nM.
In the case of `COc1cc(-c2[nH]c3ccc(OC4CCN(CC(=O)N(C)C)CC4)cc3c2C(C)C)cn2ncnc12` [Example 93, 2-(4-((3-isopropyl-2-(8-methoxy-[1,2,4]triazolo[1,5-a]pyridin-6-yl)-1H-indol-5-yl)oxy)piperidin-1-yl)-N,N-dimethylacetamide], the half-maximal inhibitory concentration (IC50) was 2.6 nM against human TLR8 and 1810 nM against human TLR9.
Take `CNC(=O)CN1CCC(Oc2ccc3[nH]c(-c4cn(C)c(=O)c(C)c4C)c(C(C)C)c3c2)CC1` [Example 115, 2-(4-((3-isopropyl-2-(1,4,5-trimethyl-6-oxo-1,6-dihydropyridin-3-yl)-1H-indol-5-yl)oxy)piperidin-1-yl)-N-methylacetamide]: the figures for the IC50 on human TLR7 and at human TLR8 were 39.7 nM and 8.6 nM, respectively.
`Cc1cc(-c2[nH]c3ccc(OCc4c[nH]cn4)cc3c2C(C)C)ccn1` [Example 176, 5-((1H-imidazol-4-yl)methoxy)-3-isopropyl-2-(2-methylpyridin-4-yl)-1H-indole]: the IC50 against human TLR9 was 13600 nM.
On the same count and under the same terms, next, `Cc1cc(-c2[nH]c3ccc(OCc4c[nH]cn4)cc3c2C(C)C)ccn1` [Example 178, 5-((1H-imidazol-4-yl)methoxy)-3-isopropyl-2-(2-methylpyridin-4-yl)-1H-indole]: greater than 50000 nM.
Consider `Cc1cc(-c2[nH]c3ccc(OC4CCN(CCC(F)(F)F)CC4)cc3c2C(C)C)ccn1` [Example 187, 3-isopropyl-2-(2-methylpyridin-4-yl)-5-((1-(3,3,3-trifluoropropyl)piperidin-4-yl)oxy)-1H-indole], for which the IC50 against human TLR7 came out at 257 nM; against human TLR8, 3.9 nM.
